The results in this text go back to patent US11185588B2, “Pharmaceutical dosage forms comprising valganciclovir hydrochloride” (Hoffmann-La Roche Inc., priority 2006, dated 2021).

Structures are written as SMILES.

Data set [1] is described as follows: pKa. The data set is classed as physicochemical. The protocol: (§1) The solubility of valganciclovir hydrochloride (active pharmaceutical ingredient, API) in aqueous solution is pH dependent. […] Valganciclovir hydrochloride is freely soluble under acidic conditions with a maximum solubility of greater than 200 mg/mL in the pH range of 4-6. The stability of valganciclovir hydrochloride is greatest at a pH<3.8.

A short description of data set [2]: pH dependence of stability in aqueous solution. The class given is physicochemical. The conditions noted are these: monohydrochloride. As for the experimental part:
as §1
The following excipients were used to prepare the formulations of Type I. Citric acid anhydrous was combined with sodium citrate to form the buffer system to ensure an acidic pH. […] Sodium benzoate was used as a preservative agent and sodium saccharin was used as an artificial sweetening agent. Maltose, a crystalline disaccharide carbohydrate, was used as a bulking agent (diluent) and to provide desirable mouth feel and sweetness. Strawberry flavor was used as the flavor of the oral solution.

Data set [3] can be described thus: Hygroscopicity on exposure to relative humidity. The data set is classed as physicochemical. Particulars: exposed to 80% relative humidity. The source says:
Valganciclovir hydrochloride is moderately hygroscopic, with only small changes in moisture observed when the valganciclovir hydrochloride is exposed to moderate relative humidity. A weight gain of up to approximately 3% occurs when the valganciclovir hydrochloride is exposed to 80% relative humidity (for a total moisture content of up to approximately 8%). It is reversibly hygroscopic and will either absorb or release moisture under ambient humidity conditions, depending on the water content of the valganciclovir hydrochloride and the relative humidity.

Data set [4] is classed as physicochemical. The conditions noted are these: pH 7. As for the experimental part: as §1
Data set [5] can be described thus: physchem. The data set is classed as physicochemical. The protocol:
as §1

Consider `CC(C)[C@H](N)C(=O)OCC(CO)OCn1cnc2c(=O)[nH]c(N)nc21.Cl` (stereo partly drawn) [valganciclovir hydrochloride, L-Valine, 2-[(2-amino-1,6-dihydro-6-oxo-9H-purin-9-yl)methoxy]-3-hydroxypropyl ester, monohydrochloride], for which, in data set [1], the pKa worked out at 7.6. For the same molecule, the “pH at which stability is greatest” value in data set [2] (listed as valganciclovir) is at most 3.8; in data set [2], below 3.8. Further, the total moisture content in data set [3] is on record as at most 8%. The same molecule returned a weight gain in data set [3] of at most 3%. In data set [4], this molecule showed a n-octanol/water partition coefficient of 0.0095. The solubility in data set [5] (25 °C, pH 7, water) is 70 mg/mL; in data set [5] (aqueous buffer), above 200 mg/mL. For the same molecule, the solubility in water in data set [5] (pH 7) was 70 mg/mL.
